Measurements reported in patent US9291619B2, “Method for detecting non-transferrin bound iron” (Yissum Research Development Company of the Hebrew …, priority 2011, dated 2016).
Structures can show the parent of a compound that is named as a salt.

Experiments:
Assay type in all cases: biochemical, human
[1] = LPI (labile plasma iron) assay without NTA; conditions: for serum concentration of chelator required for reducing LPI by 2 μM: 2 hr incubation with thalassemia serum at room temperature, LPI assay without NTA; for effect of added serum component on measured LPI values: added to sera from 6 thalassemic patients, citrate 0.15 mM, albumin 10 mg/ml, uric acid 0.5 mM
Method: Determination of LPI and DCI. The properties of the assays used in this study in their different modalities are compiled in Table 2, below.
(§1) LPI determination, The LPI (Labile iron in plasma) assay was used as described previously or in the presence of NTA added from a concentrated solution. In experiments testing the effects of various additives on LPI, 20 μl of the additives dissolved in HBS (HEPES buffered saline composed of 20 mM HEPES, 150 mM NaCl, pH 7.4) were mixed with 20 μl of serum. Control samples and iron standards were similarly diluted with HBS. LPI assays without added NTA (‘redox-active LPI’) are designated “LPI” and LPI assays with added NTA (0.5 mM unless stated otherwise) are designated “eLPI”.
Measurements of LPI were originally designed for the detection of labile forms of iron in native human plasma or serum. The purpose was to assess if those labile forms could serve as indicators of impending tissue iron overload and as direct targets of chelation, on the basis that they should be comprised of chemical forms that are distinguishable from the non-labile Tf-bound iron in that they are redox-active, exchangeable with other ligands and accessible to chelators. This led to simple and sensitive assays that are performed under nearly physiological conditions, with 40 μM ascorbate added to initiate redox cycling of the iron and ensuing generation of reactive oxygen species (ROS) that are quantified by a fluorescence assay (Table 1). […] Thus, the assay avoids the inadvertent detection of transferrin-bound iron or labile iron-chelates. The detected LPI reflects the most labile or redox-active forms of NTBI in native plasma or serum, but not putative forms bound to non-labile ligands (e.g. citrate, albumin) In addition, the detection of LPI might be susceptible to masking by plasma antioxidants. […] For comparison, they also used a more direct assay for NTBI, in which DFO-chelatable iron is determined by its stoichiometric binding to the probe fluorescein-DFO in the presence and absence of an iron mobilizing agent.

[2] = eLPI assay (LPI assay with added NTA); conditions: for serum concentration of chelator required for reducing eLPI by 2 μM: 2 hr incubation with thalassemia serum at room temperature, eLPI assay (0.5 mM NTA)
Method: as §1
As the iron-mobilizing effect of NTA on NTBI has been previously shown to be dependent on the NTA concentration, the effect of increasing NTA concentrations on LPI levels in 9 representative sera: 7 from thalassemia patients and 2 from normal individuals (FIG. 1) was assessed. […] The detected LPI signal reached maximum levels at 0.1 mM NTA in sera with LPI <1 μM and at 0.5 mM NTA in thalassemic sera with LPI >1 μM. Control sera […] remained LPI-negative at all tested concentrations of NTA, a finding corroborated in LPI tests carried out with 0.5 mM NTA on >100 sera from normal individuals (data not shown). The same values of LPI were obtained when sera were assayed with 0.5 mM NTA present in the final assay solution or when sera were preincubated with NTA for 1 hr prior to 10-fold dilution with assay solution lacking NTA. Based on the relatively fast (within minutes) and distinct extraction/mobilization of LPI components by moderate NTA treatment depicted in FIG. 1, a modality of the original LPI assay by incorporating 0.5mM NTA as extracting/mobilizing agent was adopted and referred to as enhanced LPI (eLPI).

[3] = DCI (directly chelatable iron) assay with fluorescein-DFO; conditions: for effect of added serum component on DCI values: added to thalassemia sera
Excerpt: DCI determination. The DCI assay (directly chelatable iron) was used for sample analysis of labile iron by assessing its binding to fluorescein-DFO (Table 1) with a fluorescence plate reader or adapted for flow cytometry using as analytical probe fluorescein and DFO covalently coupled to chemically modified polystyrene beads (Spherotec Inc., Lake Forest, Ill., USA) (and an Eclipse instrument (iCyt, Champaign, Ill., USA) (Breuer et al, to be published elsewhere). In tests of the effect of NTA on DCI determination, NTA was added from a stock solution directly to the assay reagents. In experiments testing the effects of various additives on DCI, 20 μl of the additives dissolved in HBS were mixed with 20 μl of serum samples and the combined mixture (40 μl) was used in the assay. Control samples and iron standards were similarly diluted with HBS. In previous publications the term DCI has always indicated the assay format without NTA. In the present work the two formats of the
DCI assay are designated DCI (−) (without NTA) and DCI (+) (with 0.1 mM NTA).
For comparing eLPI with NTBI, the present inventors have employed an alternative assay for NTBI, termed directly-chelatable iron or DCI (FIG. 2, lower panel). Unlike LPI and eLPI which measure iron redox activity, DCI measures the accessibility of NTBI to a fluorescent, high-affinity chelator probe (fluorescein-DFO). […] This was confirmed by testing 22 TM sera for DCI without and with 0.1 mM NTA. An average increase of 0.14±0.13 μM was obtained in the presence of NTA (Breuer, W. and Cabantchik, Z. I, unpublished observations). The concentration of NTA in the DCI assay had to be limited to 0.1 mM to avoid contributions from holo-Tf-iron. Release of iron from holo-Tf by various carboxylate ligands such as NTA in combination with DFO has been documented previously. […] The present inventors tentatively attribute the exogenous albumin-mediated reduction of DCI to the binding of the fluorescein moiety of fluorescein-DFO to one of purified-albumin's hydrophobic binding sites, leading to a partial loss of sensitivity to quenching of the fluorescent chelator by iron. As the majority of such sites is normally occupied in plasma, their interference with the above assay should be minor

Molecule: CC(=O)N(O)CCCCCNC(=O)CCC(=O)N(O)CCCCCNC(=O)CCC(=O)N(O)CCCCCN [DFO, deferrioxamine]
- serum concentration of chelator required for reducing LPI by 2 μM [1]: < 10 µM
- serum concentration of chelator required for reducing eLPI by 2 μM [2]: ~10 µM
- competition with fluorescein-DFO in preventing the detection of DCI ([3]; DCI assays without and with NTA): competed efficiently

Molecule: Cc1c(O)c(=O)ccn1C [DFP, 1,2-dimethyl-3-hydroxypyridin-4-one]
- serum concentration of chelator required for reducing LPI by 2 μM [1]: ~25 µM
- serum concentration of chelator required for reducing eLPI by 2 μM [2]: ~75 µM
- concentration in the serum required to decrease DCI by 2 μM, compared with LPI and eLPI ([3]; DCI assays without and with NTA, 2 hr incubation with thalassemia serum): markedly greater

Molecule: O=C(O)CC(O)(CC(=O)O)C(=O)O [citrate, sodium citrate]
- effect of added serum component on measured LPI values [1]: significantly attenuated
- effect of added serum component on DCI values [3]: Neither citrate nor uric acid significantly affected DCI values

Molecule: O=c1[nH]c(=O)c2[nH]c(=O)[nH]c2[nH]1 [uric acid]
- effect of added serum component on measured LPI values [1]: significantly attenuated
- effect of added serum component on DCI values [3]: Neither citrate nor uric acid significantly affected DCI values

Molecule: iron-saturated Tf: human apo-Tf saturated with iron (ferrous ammonium sulfate), dialyzed
- effect of added serum component on eLPI values ([2]; 1 mg/ml added to 6 thalassemia sera in the presence of NTA): no significant effect
